In the first assay the target is BRG-1 (Homo sapiens, UniProt P51532). The experiment in a line: ATPase catalytic activity assay (ADP-Glo), BRG-1.
Sequence of BRG-1 (P51532 whole entry): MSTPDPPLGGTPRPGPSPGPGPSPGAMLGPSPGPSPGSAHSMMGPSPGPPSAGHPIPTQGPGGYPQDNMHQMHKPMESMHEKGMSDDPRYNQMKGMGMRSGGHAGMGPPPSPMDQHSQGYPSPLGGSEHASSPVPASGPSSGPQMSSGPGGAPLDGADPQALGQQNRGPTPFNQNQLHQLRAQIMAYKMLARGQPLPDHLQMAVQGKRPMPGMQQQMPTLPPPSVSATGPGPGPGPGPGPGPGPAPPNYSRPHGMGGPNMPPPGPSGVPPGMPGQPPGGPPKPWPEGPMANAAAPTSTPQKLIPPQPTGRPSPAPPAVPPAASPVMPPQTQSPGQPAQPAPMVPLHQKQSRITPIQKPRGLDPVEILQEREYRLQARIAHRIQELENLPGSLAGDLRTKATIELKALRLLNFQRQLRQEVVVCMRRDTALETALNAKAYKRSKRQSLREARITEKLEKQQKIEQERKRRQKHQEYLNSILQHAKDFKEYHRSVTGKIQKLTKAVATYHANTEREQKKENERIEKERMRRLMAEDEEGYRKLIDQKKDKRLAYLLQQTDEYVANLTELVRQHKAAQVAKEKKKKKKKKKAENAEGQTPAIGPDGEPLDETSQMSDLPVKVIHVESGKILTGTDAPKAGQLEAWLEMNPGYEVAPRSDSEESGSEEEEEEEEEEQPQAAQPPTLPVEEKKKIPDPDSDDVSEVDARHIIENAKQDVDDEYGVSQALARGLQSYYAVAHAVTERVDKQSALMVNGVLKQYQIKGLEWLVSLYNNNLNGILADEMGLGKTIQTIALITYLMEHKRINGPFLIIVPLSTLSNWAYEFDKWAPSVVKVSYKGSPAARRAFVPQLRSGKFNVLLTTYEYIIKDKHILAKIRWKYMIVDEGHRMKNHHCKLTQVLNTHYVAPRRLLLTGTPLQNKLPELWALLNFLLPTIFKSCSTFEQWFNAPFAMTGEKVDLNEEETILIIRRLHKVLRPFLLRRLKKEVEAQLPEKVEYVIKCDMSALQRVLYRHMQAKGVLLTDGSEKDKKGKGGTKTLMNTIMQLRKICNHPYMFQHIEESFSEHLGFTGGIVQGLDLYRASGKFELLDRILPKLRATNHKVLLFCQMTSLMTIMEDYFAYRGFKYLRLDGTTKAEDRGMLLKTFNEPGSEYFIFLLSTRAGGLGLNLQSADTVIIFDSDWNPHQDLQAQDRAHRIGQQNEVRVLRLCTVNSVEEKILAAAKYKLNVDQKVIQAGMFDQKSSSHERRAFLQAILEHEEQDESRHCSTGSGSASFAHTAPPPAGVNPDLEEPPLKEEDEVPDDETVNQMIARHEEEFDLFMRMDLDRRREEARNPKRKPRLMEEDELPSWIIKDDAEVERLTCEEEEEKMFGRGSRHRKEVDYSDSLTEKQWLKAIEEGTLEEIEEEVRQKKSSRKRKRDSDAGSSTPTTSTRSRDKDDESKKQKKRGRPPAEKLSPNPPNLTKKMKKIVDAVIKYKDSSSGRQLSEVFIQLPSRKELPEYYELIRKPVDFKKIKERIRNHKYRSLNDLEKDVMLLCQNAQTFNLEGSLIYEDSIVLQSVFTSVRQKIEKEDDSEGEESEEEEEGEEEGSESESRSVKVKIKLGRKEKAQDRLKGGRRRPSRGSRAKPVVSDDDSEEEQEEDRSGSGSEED
Conditions: not given
For orientation: ADP-Glo first removes unused ATP, then detects ADP through luciferase.
Sequence of BRM (P51531 whole entry): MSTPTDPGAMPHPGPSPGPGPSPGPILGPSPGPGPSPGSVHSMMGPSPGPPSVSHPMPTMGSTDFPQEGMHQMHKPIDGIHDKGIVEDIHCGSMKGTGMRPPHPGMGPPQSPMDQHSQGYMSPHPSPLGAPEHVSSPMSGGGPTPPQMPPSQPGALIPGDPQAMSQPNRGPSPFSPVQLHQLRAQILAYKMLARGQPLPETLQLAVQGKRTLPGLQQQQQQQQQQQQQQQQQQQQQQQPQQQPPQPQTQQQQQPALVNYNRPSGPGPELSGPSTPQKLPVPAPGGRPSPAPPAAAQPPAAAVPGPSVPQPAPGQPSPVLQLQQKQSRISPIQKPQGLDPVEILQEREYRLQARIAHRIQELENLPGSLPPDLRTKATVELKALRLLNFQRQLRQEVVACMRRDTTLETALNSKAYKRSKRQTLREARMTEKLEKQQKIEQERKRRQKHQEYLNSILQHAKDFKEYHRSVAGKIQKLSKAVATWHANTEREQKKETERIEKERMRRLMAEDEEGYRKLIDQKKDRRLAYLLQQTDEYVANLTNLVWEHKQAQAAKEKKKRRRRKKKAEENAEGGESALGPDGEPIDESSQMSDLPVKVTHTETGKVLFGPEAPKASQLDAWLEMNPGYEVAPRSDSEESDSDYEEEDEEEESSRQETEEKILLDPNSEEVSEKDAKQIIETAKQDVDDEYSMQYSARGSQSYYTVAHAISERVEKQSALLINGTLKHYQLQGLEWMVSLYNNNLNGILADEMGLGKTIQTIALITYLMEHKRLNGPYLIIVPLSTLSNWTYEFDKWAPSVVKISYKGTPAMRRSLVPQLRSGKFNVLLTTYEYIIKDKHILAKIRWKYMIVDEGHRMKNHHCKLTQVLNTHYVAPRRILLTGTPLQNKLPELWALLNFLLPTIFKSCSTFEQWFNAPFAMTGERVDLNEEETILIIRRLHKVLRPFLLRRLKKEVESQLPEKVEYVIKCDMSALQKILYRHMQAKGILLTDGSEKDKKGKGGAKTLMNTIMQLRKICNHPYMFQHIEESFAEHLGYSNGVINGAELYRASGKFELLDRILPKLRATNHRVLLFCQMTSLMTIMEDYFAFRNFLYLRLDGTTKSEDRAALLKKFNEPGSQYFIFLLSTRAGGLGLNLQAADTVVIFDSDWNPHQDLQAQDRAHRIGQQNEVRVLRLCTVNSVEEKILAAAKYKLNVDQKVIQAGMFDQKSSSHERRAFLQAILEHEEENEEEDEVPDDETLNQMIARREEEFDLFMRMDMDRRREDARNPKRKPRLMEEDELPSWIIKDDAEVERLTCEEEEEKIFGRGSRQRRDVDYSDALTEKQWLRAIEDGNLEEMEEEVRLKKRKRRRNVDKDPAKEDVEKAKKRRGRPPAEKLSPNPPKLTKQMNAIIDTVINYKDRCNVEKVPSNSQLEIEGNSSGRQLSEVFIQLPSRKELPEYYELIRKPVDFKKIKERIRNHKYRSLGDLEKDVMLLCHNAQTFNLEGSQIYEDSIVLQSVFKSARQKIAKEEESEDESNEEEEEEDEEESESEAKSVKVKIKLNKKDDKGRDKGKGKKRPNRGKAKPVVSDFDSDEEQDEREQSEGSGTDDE
By IC50 is commonly meant the midpoint of a concentration-inhibition curve. Read a high IC50 as a need for much substance. In turn, `C[C@@]1(F)COCc2ccc(C(=O)NCc3cc4cc(-c5cccc(N6CCC6)n5)cnc4cn3)cc21` [Compound 347] returned a half-maximal inhibitory concentration (IC50) of 100 to 500 nM.
`COC(=O)c1cccc(C#Cc2ccnc(CNC(=O)c3ccc4c(c3)[C@](C)(C#N)CCO4)c2)c1` [Compound 24] came in with an IC50 of more than 1000 nM.
Regarding `C[C@H]1COCCN1c1nccc(-c2ccc3cnc(CNC(=O)c4ccc5c(c4)[C@](C)(C#N)COC5)cc3n2)n1` [Compound 376], the IC50 lay in the range of 500 to 1000 nM.
Molecule `COC1CN(c2cncc(-c3ccc4cnc(CNC(=O)c5ccc6c(c5)[C@](C)(C#N)COC6)cc4n3)n2)C1` [Compound 409] displayed an IC50 of 100 to 500 nM.
On to `C[C@@]1(C#N)COCc2ccc(C(=O)NCc3cc4nc(-c5ccnc(N6C[C@@H]7C[C@H]6CO7)n5)ccc4cn3)cc21` [Compound 340], for which the IC50 lay within 100 to 500 nM.
As for `C[C@@]1(C#N)COCc2ccc(C(=O)NCc3cc4c(cn3)CCN(c3ccnc(N5CCCC5)n3)C4)cc21` [Compound 331], the IC50 is 500 to 1000 nM.
Consider `C[C@@]1(C#N)COCc2ccc(C(=O)NCc3cc4nc(N5CCCN(C6CC6)C5=O)ccc4cn3)cc21` [Compound 315], for which the IC50 is more than 1000 nM.
Regarding `C[C@@]1(F)COCc2ccc(C(=O)NCc3cc4nc(-c5cncc(N6CCOCC6)n5)ccc4cn3)cc21` [Compound 319], the IC50 lay in the range of 100 to 500 nM.
`C[C@@]1(C#N)COCc2ccc(C(=O)NCc3cc4cc(-c5cncc(N6CCC6)n5)ccc4cn3)cc21` [Compound 371]: the IC50 is less than 100 nM.
`COCC1CN(c2cncc(-c3ccc4cnc(CNC(=O)c5ccc6c(c5)[C@](C)(C#N)COC6)cc4n3)n2)C1` [Compound 394] gave a half-inhibitory concentration (IC50) of 100 to 500 nM.
`CN(C)c1cncc(-c2ccc3cnc(CNC(=O)c4ccc5c(c4)[C@](C)(C#N)COC5)cc3n2)n1` [Compound 407] came in with a 50% inhibitory concentration (IC50) of 100 to 500 nM.
`COc1c(-c2ccc3cnc(CNC(=O)c4ccc5c(c4)[C@](C)(C#N)COC5)cc3n2)ccc2cnn(C)c12` [Compound 491] displayed a 50% inhibitory concentration (IC50) of 500 to 1000 nM.
`C[C@@]1(C#N)COCc2ccc(C(=O)NCc3nccc(N4CCc5ccccc5C4)c3F)cc21` [Compound 66] registered a half-inhibitory concentration (IC50) of 500 to 1000 nM.
In turn, `C[C@@]1(C#N)COCc2ccc(C(=O)NCc3cc4nc(-c5cncc(C6CC6)n5)ccc4cn3)cc21` [Compound 406] showed a half-inhibitory concentration (IC50) of 100 to 500 nM.
In turn, `C[C@@]1(C#N)COCc2ccc(C(=O)NCc3cc4cc(-c5ccccc5)ccc4cn3)cc21` [Compound 123] yielded an IC50 of more than 1000 nM.
In turn, `C[C@@]1(C#N)COCc2ccc(C(=O)NCc3cc4nc(-c5ccnc(C6CCOCC6)n5)ccc4cn3)cc21` [Compound 397] returned an IC50 of 500 to 1000 nM.
As for `Cc1cc2c(-c3ccc4cnc(CNC(=O)c5ccc6c(c5)[C@](C)(C#N)COC6)cc4n3)cccc2n1C` [Compound 172], the half-maximal inhibitory concentration (IC50) was less than 100 nM.

Still in this assay, the particulars now being: 1 h, read-out: BRG1 Max % Inhibition, ADP-Glo, 30 nM BRG-1, 400 μM ATP.
Regarding `C[C@@]1(F)COCc2ccc(C(=O)NCc3cc4cc(-c5cccc(N6CCC6)n5)cnc4cn3)cc21` [Compound 347], the Emax was 79%.
Turning to `COC(=O)c1cccc(C#Cc2ccnc(CNC(=O)c3ccc4c(c3)[C@](C)(C#N)CCO4)c2)c1` [Compound 24], the Emax was found to be 65%.
On to `C[C@H]1COCCN1c1nccc(-c2ccc3cnc(CNC(=O)c4ccc5c(c4)[C@](C)(C#N)COC5)cc3n2)n1` [Compound 376], for which the Emax was 79%.
As to `COC1CN(c2cncc(-c3ccc4cnc(CNC(=O)c5ccc6c(c5)[C@](C)(C#N)COC6)cc4n3)n2)C1` [Compound 409], the Emax worked out at 95%.
Turning to `C[C@@]1(C#N)COCc2ccc(C(=O)NCc3cc4nc(-c5ccnc(N6C[C@@H]7C[C@H]6CO7)n5)ccc4cn3)cc21` [Compound 340], the Emax was determined as 91%.
The same measure, in the same setting: the figure for `C[C@@]1(C#N)COCc2ccc(C(=O)NCc3cc4c(cn3)CCN(c3ccnc(N5CCCC5)n3)C4)cc21` [Compound 331] is 73%; for `C[C@@]1(C#N)COCc2ccc(C(=O)NCc3cc4nc(N5CCCN(C6CC6)C5=O)ccc4cn3)cc21` [Compound 315] it is 33%; for `C[C@@]1(F)COCc2ccc(C(=O)NCc3cc4nc(-c5cncc(N6CCOCC6)n5)ccc4cn3)cc21` [Compound 319] it is 92%.
On to `C[C@@]1(C#N)COCc2ccc(C(=O)NCc3cc4cc(-c5cncc(N6CCC6)n5)ccc4cn3)cc21` [Compound 371], for which the Emax turned out to be 97%.
Turning to `COCC1CN(c2cncc(-c3ccc4cnc(CNC(=O)c5ccc6c(c5)[C@](C)(C#N)COC6)cc4n3)n2)C1` [Compound 394], the Emax was determined as 93%.
Consider `CN(C)c1cncc(-c2ccc3cnc(CNC(=O)c4ccc5c(c4)[C@](C)(C#N)COC5)cc3n2)n1` [Compound 407], for which the Emax was found to be 97%.
On to `COc1c(-c2ccc3cnc(CNC(=O)c4ccc5c(c4)[C@](C)(C#N)COC5)cc3n2)ccc2cnn(C)c12` [Compound 491], for which the Emax is 76%.
The same measure, in the same setting: the figure for `C[C@@]1(C#N)COCc2ccc(C(=O)NCc3nccc(N4CCc5ccccc5C4)c3F)cc21` [Compound 66] is 76%; for `C[C@@]1(C#N)COCc2ccc(C(=O)NCc3cc4nc(-c5cncc(C6CC6)n5)ccc4cn3)cc21` [Compound 406] it is 93%; for `C[C@@]1(C#N)COCc2ccc(C(=O)NCc3cc4cc(-c5ccccc5)ccc4cn3)cc21` [Compound 123] it is 74%.
Take `C[C@@]1(C#N)COCc2ccc(C(=O)NCc3cc4nc(-c5ccnc(C6CCOCC6)n5)ccc4cn3)cc21` [Compound 397]: the Emax was 66%.
On the same count and under the same terms, the figure for `Cc1cc2c(-c3ccc4cnc(CNC(=O)c5ccc6c(c5)[C@](C)(C#N)COC6)cc4n3)cccc2n1C` [Compound 172] is 97%.

The next assay addresses BRM (Homo sapiens, UniProt P51531). The experiment in a line: ATPase catalytic activity assay (ADP-Glo), BRM. To be noted: 30 nM BRM, 400 μM ATP.
In the case of `C[C@@]1(F)COCc2ccc(C(=O)NCc3cc4cc(-c5cccc(N6CCC6)n5)cnc4cn3)cc21` [Compound 347], the “BRM Max % Inhibition” value was found to be 100%.
On the same count and under the same terms, the value for `COC(=O)c1cccc(C#Cc2ccnc(CNC(=O)c3ccc4c(c3)[C@](C)(C#N)CCO4)c2)c1` [Compound 24] was 94%; that for `C[C@H]1COCCN1c1nccc(-c2ccc3cnc(CNC(=O)c4ccc5c(c4)[C@](C)(C#N)COC5)cc3n2)n1` [Compound 376] was 98%.
In the case of `COC1CN(c2cncc(-c3ccc4cnc(CNC(=O)c5ccc6c(c5)[C@](C)(C#N)COC6)cc4n3)n2)C1` [Compound 409], the “BRM Max % Inhibition” value amounted to 96%.
The same measure, in the same setting: the figure for `C[C@@]1(C#N)COCc2ccc(C(=O)NCc3cc4nc(-c5ccnc(N6C[C@@H]7C[C@H]6CO7)n5)ccc4cn3)cc21` [Compound 340] is 99%.
Consider `C[C@@]1(C#N)COCc2ccc(C(=O)NCc3cc4c(cn3)CCN(c3ccnc(N5CCCC5)n3)C4)cc21` [Compound 331], for which the “BRM Max % Inhibition” value is 97%.
Consider `C[C@@]1(C#N)COCc2ccc(C(=O)NCc3cc4nc(N5CCCN(C6CC6)C5=O)ccc4cn3)cc21` [Compound 315], for which the “BRM Max % Inhibition” value was 81%.
For the molecule `C[C@@]1(F)COCc2ccc(C(=O)NCc3cc4nc(-c5cncc(N6CCOCC6)n5)ccc4cn3)cc21` [Compound 319], the “BRM Max % Inhibition” value was found to be 104%.
As to `C[C@@]1(C#N)COCc2ccc(C(=O)NCc3cc4cc(-c5cncc(N6CCC6)n5)ccc4cn3)cc21` [Compound 371], the “BRM Max % Inhibition” value is listed as 104%.
Take `COCC1CN(c2cncc(-c3ccc4cnc(CNC(=O)c5ccc6c(c5)[C@](C)(C#N)COC6)cc4n3)n2)C1` [Compound 394]: the “BRM Max % Inhibition” value was determined as 101%.
For `CN(C)c1cncc(-c2ccc3cnc(CNC(=O)c4ccc5c(c4)[C@](C)(C#N)COC5)cc3n2)n1` [Compound 407], the “BRM Max % Inhibition” value was 99%.
For the molecule `COc1c(-c2ccc3cnc(CNC(=O)c4ccc5c(c4)[C@](C)(C#N)COC5)cc3n2)ccc2cnn(C)c12` [Compound 491], the “BRM Max % Inhibition” value is recorded as 98%.
For the molecule `C[C@@]1(C#N)COCc2ccc(C(=O)NCc3nccc(N4CCc5ccccc5C4)c3F)cc21` [Compound 66], the “BRM Max % Inhibition” value stood at 99%.
For `C[C@@]1(C#N)COCc2ccc(C(=O)NCc3cc4nc(-c5cncc(C6CC6)n5)ccc4cn3)cc21` [Compound 406], the “BRM Max % Inhibition” value worked out at 100%.
As to `C[C@@]1(C#N)COCc2ccc(C(=O)NCc3cc4cc(-c5ccccc5)ccc4cn3)cc21` [Compound 123], the “BRM Max % Inhibition” value is recorded as 96%.
Still for that read-out and setting: the value for `C[C@@]1(C#N)COCc2ccc(C(=O)NCc3cc4nc(-c5ccnc(C6CCOCC6)n5)ccc4cn3)cc21` [Compound 397] was 93%; that for `Cc1cc2c(-c3ccc4cnc(CNC(=O)c5ccc6c(c5)[C@](C)(C#N)COC6)cc4n3)cccc2n1C` [Compound 172] was 99%.

Staying with this assay, now noted: BRM ATPase: IC50 (uM), 30 nM BRM, 400 μM ATP.
For the molecule `C[C@@]1(F)COCc2ccc(C(=O)NCc3cc4cc(-c5cccc(N6CCC6)n5)cnc4cn3)cc21` [Compound 347], the half-maximal inhibitory concentration (IC50) was less than 0.1 µM.
The same measure, in the same setting: the value for `COC(=O)c1cccc(C#Cc2ccnc(CNC(=O)c3ccc4c(c3)[C@](C)(C#N)CCO4)c2)c1` [Compound 24] was 0.1 to 0.5 µM.
On the same count and under the same terms, the figure for `C[C@H]1COCCN1c1nccc(-c2ccc3cnc(CNC(=O)c4ccc5c(c4)[C@](C)(C#N)COC5)cc3n2)n1` [Compound 376] is 0.1 to 0.5 µM; for `COC1CN(c2cncc(-c3ccc4cnc(CNC(=O)c5ccc6c(c5)[C@](C)(C#N)COC6)cc4n3)n2)C1` [Compound 409] it is less than 0.1 µM; for `C[C@@]1(C#N)COCc2ccc(C(=O)NCc3cc4nc(-c5ccnc(N6C[C@@H]7C[C@H]6CO7)n5)ccc4cn3)cc21` [Compound 340] it is less than 0.1 µM.
In turn, `C[C@@]1(C#N)COCc2ccc(C(=O)NCc3cc4c(cn3)CCN(c3ccnc(N5CCCC5)n3)C4)cc21` [Compound 331] came in with a concentration for half-maximal inhibition (IC50) of 0.1 to 0.5 µM.
Regarding `C[C@@]1(C#N)COCc2ccc(C(=O)NCc3cc4nc(N5CCCN(C6CC6)C5=O)ccc4cn3)cc21` [Compound 315], the IC50 lay in the range of 0.1 to 0.5 µM.
In turn, `C[C@@]1(F)COCc2ccc(C(=O)NCc3cc4nc(-c5cncc(N6CCOCC6)n5)ccc4cn3)cc21` [Compound 319] yielded a concentration for half-maximal inhibition (IC50) of less than 0.1 µM.
The molecule `C[C@@]1(C#N)COCc2ccc(C(=O)NCc3cc4cc(-c5cncc(N6CCC6)n5)ccc4cn3)cc21` [Compound 371] gave an IC50 of less than 0.1 µM.
Turning to `COCC1CN(c2cncc(-c3ccc4cnc(CNC(=O)c5ccc6c(c5)[C@](C)(C#N)COC6)cc4n3)n2)C1` [Compound 394], the half-maximal inhibitory concentration (IC50) was less than 0.1 µM.
`CN(C)c1cncc(-c2ccc3cnc(CNC(=O)c4ccc5c(c4)[C@](C)(C#N)COC5)cc3n2)n1` [Compound 407] returned an IC50 of less than 0.1 µM.
Still for that read-out and setting: the figure for `COc1c(-c2ccc3cnc(CNC(=O)c4ccc5c(c4)[C@](C)(C#N)COC5)cc3n2)ccc2cnn(C)c12` [Compound 491] is 0.1 to 0.5 µM.
The molecule `C[C@@]1(C#N)COCc2ccc(C(=O)NCc3nccc(N4CCc5ccccc5C4)c3F)cc21` [Compound 66] yielded an IC50 of 0.1 to 0.5 µM.
On the same count and under the same terms, the figure for `C[C@@]1(C#N)COCc2ccc(C(=O)NCc3cc4nc(-c5cncc(C6CC6)n5)ccc4cn3)cc21` [Compound 406] is less than 0.1 µM.
Still for that read-out and setting: the figure for `C[C@@]1(C#N)COCc2ccc(C(=O)NCc3cc4cc(-c5ccccc5)ccc4cn3)cc21` [Compound 123] is 0.1 to 0.5 µM; for `C[C@@]1(C#N)COCc2ccc(C(=O)NCc3cc4nc(-c5ccnc(C6CCOCC6)n5)ccc4cn3)cc21` [Compound 397] it is 0.1 to 0.5 µM; for `Cc1cc2c(-c3ccc4cnc(CNC(=O)c5ccc6c(c5)[C@](C)(C#N)COC6)cc4n3)cccc2n1C` [Compound 172] it is less than 0.1 µM.

(Values after patent publication US12441726B2, “Compounds and uses thereof” (Foghorn Therapeutics Inc., priority 2020, dated 2025).)
